Active and inactive are the calls of the source. No cut-off for these calls is given here.
Experiments:
[1] = target: Serine/threonine-protein kinase 26 (Homo sapiens) (UniProt Q9P289); assay: Binding affinity to wild-type human full length MST4 (M1 to P416 residues) expressed in mammalian expression system assessed as residual binding level at 10 uM by Kinomescan method relative to control
[2] = target: Serine/threonine-protein kinase 3 (Homo sapiens) (UniProt Q13188); assay: Binding affinity to wild-type human partial length MST2 (D17 to E318 residues) expressed in bacterial expression system assessed as residual binding level at 10 uM by Kinomescan method relative to control
[3] = target: Serine/threonine-protein kinase RIO3 (Homo sapiens) (UniProt O14730); assay: Binding affinity to wild-type human full length RIOK3 (M1 to E519 residues) expressed in bacterial expression system assessed as residual binding level at 10 uM by Kinomescan method relative to control
[4] = target: Protein-arginine deiminase type-4 (Homo sapiens) (UniProt Q9UM07); assay: Inhibition of recombinant human PAD4 at 200 uM using N-alpha-benzoyl-L-arginine ethyl ester as substrate by fluorescence based analysis
[5] = target: Mitogen-activated protein kinase kinase kinase 19 (Homo sapiens) (UniProt Q56UN5); assay: Binding affinity to wild-type human partial length YSK4 (T1019 to H1328 residues) expressed in mammalian expression system assessed as residual binding level at 10 uM by Kinomescan method relative to control
[6] = target: Serine/threonine-protein kinase Nek2 (Homo sapiens) (UniProt P51955); assay: Binding affinity to wild-type human partial length NEK2 (M1 to K309 residues) expressed in bacterial expression system assessed as residual binding level at 10 uM by Kinomescan method relative to control
[7] = target: Rhodopsin kinase GRK1 (Homo sapiens) (UniProt Q15835); assay: Binding affinity to wild-type human full length GRK1 (M1 to S563 residues) expressed in mammalian expression system assessed as residual binding level at 10 uM by Kinomescan method relative to control
[8] = target: Eukaryotic translation initiation factor 2-alpha kinase 1 (Homo sapiens) (UniProt Q9BQI3); assay: Binding affinity to wild-type human partial length EIF2AK1 (Q147 to E603 residues) expressed in mammalian expression system assessed as residual binding level at 10 uM by Kinomescan method relative to control
[9] = target: Tyrosine-protein kinase Tec (Homo sapiens) (UniProt P42680); assay: Binding affinity to wild-type human partial length TEC (L341 to D620 residues) expressed in bacterial expression system assessed as residual binding level at 10 uM by Kinomescan method relative to control
[10] = target: Proto-oncogene tyrosine-protein kinase Src (Homo sapiens) (UniProt P12931); assay: Binding affinity to wild-type human partial length SRC (L240 to L536 residues) expressed in bacterial expression system assessed as residual binding level at 10 uM by Kinomescan method relative to control
[11] = target: Mitogen-activated protein kinase kinase kinase 2 (Homo sapiens) (UniProt Q9Y2U5); assay: Binding affinity to wild-type human partial length MAP3K2 (S315 to H619 residues) expressed in mammalian expression system assessed as residual binding level at 10 uM by Kinomescan method relative to control
[12] = target: Protein-tyrosine kinase 6 (Homo sapiens) (UniProt Q13882); assay: Binding affinity to wild-type human partial length BRK (L166 to T451 residues) expressed in bacterial expression system assessed as residual binding level at 10 uM by Kinomescan method relative to control
[13] = target: Cyclin-dependent kinase 8 (Homo sapiens) (UniProt P49336); assay: Binding affinity to wild-type human partial length CDK8 (M1 to T360 residues) expressed in bacterial expression system assessed as residual binding level at 10 uM by Kinomescan method relative to control
[14] = tested on: Receptor-type tyrosine-protein kinase FLT3 (Homo sapiens), P36888 [R834Q]; assay: Binding affinity to human partial length FLT3 R834Q mutant (V592 to Y969 residues) expressed in mammalian expression system assessed as residual binding level at 10 uM by Kinomescan method relative to control
[15] = target: Serine/threonine-protein kinase DCLK1 (Homo sapiens) (UniProt O15075); assay: Binding affinity to wild-type human partial length DCAMKL1 (L270 to A662 residues) expressed in mammalian expression system assessed as residual binding level at 10 uM by Kinomescan method relative to control
[16] = tested on: Tyrosine-protein kinase ABL1 (Homo sapiens), P00519 [F317L]; assay: Binding affinity to human non-phosphorylated ABL1 F317L mutant (S229 to K512 residues) expressed in mammalian expression system assessed as residual binding level at 10 uM by Kinomescan method relative to control
[17] = target: Protein-tyrosine kinase 2-beta (Homo sapiens) (UniProt Q14289); assay: Binding affinity to wild-type human full length PYK2 (M1 to E967 residues) expressed in bacterial expression system assessed as residual binding level at 10 uM by Kinomescan method relative to control
[18] = target: Protein kinase C epsilon type (Homo sapiens) (UniProt Q02156); assay: Binding affinity to wild-type human partial length PRKCE (A378 to P737 residues) expressed in mammalian expression system assessed as residual binding level at 10 uM by Kinomescan method relative to control
[19] = target: Interleukin-1 receptor-associated kinase 1 (Homo sapiens) (UniProt P51617); assay: Binding affinity to wild-type human partial length IRAK1 (R194 to S712 residues) expressed in mammalian expression system assessed as residual binding level at 10 uM by Kinomescan method relative to control
[20] = target: Death-associated protein kinase 2 (Homo sapiens) (UniProt Q9UIK4); assay: Binding affinity to wild-type human full length DAPK2 (M1 to S370 residues) expressed in bacterial expression system assessed as residual binding level at 10 uM by Kinomescan method relative to control
[21] = tested on: Mast/stem cell growth factor receptor Kit (Homo sapiens), P10721 [D816V]; assay: Binding affinity to human partial length KIT D816V mutant (I571 to D952 residues) expressed in bacterial expression system assessed as residual binding level at 10 uM by Kinomescan method relative to control
[22] = target: 3-phosphoinositide-dependent protein kinase 1 (Homo sapiens) (UniProt O15530); assay: Binding affinity to wild-type human full length PDPK1 (M1 to Q556 residues) expressed in bacterial expression system assessed as residual binding level at 10 uM by Kinomescan method relative to control
[23] = target: RAC-gamma serine/threonine-protein kinase (Homo sapiens) (UniProt Q9Y243); assay: Binding affinity to wild-type human partial length AKT3 expressed in bacterial expression system assessed as residual binding level at 10 uM by Kinomescan method relative to control
[24] = target: Myosin-IIIb (Homo sapiens) (UniProt Q8WXR4); assay: Binding affinity to wild-type human partial length MYO3B (M1 to D357 residues) expressed in bacterial expression system assessed as residual binding level at 10 uM by Kinomescan method relative to control
[25] = target: Serine/threonine-protein kinase PLK1 (Homo sapiens) (UniProt P53350); assay: Binding affinity to wild-type human partial length PLK1 (A33 to F325 residues) expressed in mammalian expression system assessed as residual binding level at 10 uM by Kinomescan method relative to control

Chain of Mast/stem cell growth factor receptor Kit (Homo sapiens), P10721 [D816V] (P10721 whole entry D816V, the tested form may be a part): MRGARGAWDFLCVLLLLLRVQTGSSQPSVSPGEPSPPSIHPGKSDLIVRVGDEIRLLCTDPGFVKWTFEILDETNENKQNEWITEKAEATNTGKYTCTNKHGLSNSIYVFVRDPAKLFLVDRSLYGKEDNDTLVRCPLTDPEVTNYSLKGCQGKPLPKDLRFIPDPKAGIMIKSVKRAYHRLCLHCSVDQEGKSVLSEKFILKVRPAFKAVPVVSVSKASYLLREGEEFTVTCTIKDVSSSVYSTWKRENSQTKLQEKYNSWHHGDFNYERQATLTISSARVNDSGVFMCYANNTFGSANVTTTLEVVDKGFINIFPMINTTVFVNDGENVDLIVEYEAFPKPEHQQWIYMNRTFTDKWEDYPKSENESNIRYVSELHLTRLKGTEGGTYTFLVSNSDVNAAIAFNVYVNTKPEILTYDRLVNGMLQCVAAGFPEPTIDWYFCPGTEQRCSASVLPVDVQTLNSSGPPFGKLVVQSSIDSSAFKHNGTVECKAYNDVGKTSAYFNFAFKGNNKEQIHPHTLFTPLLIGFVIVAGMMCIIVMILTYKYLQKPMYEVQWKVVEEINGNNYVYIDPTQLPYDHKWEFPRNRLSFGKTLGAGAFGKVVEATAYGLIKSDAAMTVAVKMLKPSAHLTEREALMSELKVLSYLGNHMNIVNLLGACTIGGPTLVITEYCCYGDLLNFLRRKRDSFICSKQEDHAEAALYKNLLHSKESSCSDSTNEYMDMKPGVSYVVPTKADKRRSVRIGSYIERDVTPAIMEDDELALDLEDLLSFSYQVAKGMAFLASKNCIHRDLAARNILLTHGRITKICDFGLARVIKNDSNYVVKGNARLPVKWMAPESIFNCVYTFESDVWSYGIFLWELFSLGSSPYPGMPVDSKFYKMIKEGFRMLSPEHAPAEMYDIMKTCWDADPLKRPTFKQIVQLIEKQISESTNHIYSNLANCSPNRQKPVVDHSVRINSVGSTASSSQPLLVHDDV
Chain of Tyrosine-protein kinase Tec (Homo sapiens) (P42680 whole entry, the tested form may be a part): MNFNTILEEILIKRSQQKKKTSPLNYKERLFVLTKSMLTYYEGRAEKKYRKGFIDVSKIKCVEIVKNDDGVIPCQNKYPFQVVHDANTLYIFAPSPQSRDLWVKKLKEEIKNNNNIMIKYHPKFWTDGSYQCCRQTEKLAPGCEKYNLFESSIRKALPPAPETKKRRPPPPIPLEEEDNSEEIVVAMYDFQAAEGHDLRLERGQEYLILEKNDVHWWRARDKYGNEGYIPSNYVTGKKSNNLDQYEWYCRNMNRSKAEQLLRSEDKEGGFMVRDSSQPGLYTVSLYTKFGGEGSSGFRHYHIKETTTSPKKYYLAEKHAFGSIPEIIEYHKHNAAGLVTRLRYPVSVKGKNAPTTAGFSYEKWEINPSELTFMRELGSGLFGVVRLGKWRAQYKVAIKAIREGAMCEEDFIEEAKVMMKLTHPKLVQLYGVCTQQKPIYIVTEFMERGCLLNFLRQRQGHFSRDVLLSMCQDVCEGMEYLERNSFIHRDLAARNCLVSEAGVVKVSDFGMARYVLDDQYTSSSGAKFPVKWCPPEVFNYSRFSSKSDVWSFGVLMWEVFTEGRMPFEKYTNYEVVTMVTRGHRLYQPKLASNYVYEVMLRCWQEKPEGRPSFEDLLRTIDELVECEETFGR
Chain of Protein-tyrosine kinase 6 (Homo sapiens) (Q13882 whole entry, looked up, the tested form may be a part): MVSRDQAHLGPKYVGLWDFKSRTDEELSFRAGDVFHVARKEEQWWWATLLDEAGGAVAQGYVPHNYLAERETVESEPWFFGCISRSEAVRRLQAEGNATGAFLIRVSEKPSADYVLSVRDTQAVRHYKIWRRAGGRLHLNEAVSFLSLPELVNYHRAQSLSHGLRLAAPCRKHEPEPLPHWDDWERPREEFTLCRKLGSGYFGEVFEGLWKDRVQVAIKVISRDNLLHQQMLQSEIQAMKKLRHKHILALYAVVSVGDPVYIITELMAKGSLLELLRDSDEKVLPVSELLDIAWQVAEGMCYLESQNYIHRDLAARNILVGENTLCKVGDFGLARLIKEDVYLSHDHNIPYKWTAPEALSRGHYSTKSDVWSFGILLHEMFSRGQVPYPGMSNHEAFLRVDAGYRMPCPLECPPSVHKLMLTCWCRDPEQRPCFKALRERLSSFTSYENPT
Chain of RAC-gamma serine/threonine-protein kinase (Homo sapiens) (Q9Y243 whole entry, the tested form may be a part): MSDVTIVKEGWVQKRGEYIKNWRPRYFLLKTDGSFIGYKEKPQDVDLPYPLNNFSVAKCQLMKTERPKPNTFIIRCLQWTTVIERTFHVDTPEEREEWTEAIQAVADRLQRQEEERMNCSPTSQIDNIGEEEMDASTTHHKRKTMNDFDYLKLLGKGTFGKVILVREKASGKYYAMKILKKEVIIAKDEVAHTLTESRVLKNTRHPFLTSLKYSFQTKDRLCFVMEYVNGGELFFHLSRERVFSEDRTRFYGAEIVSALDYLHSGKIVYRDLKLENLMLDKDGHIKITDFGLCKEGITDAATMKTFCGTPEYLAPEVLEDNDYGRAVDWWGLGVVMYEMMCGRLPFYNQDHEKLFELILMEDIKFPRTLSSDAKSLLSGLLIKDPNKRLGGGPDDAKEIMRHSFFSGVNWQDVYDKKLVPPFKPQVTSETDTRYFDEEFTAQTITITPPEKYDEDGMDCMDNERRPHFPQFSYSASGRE
Chain of Mitogen-activated protein kinase kinase kinase 19 (Homo sapiens) (Q56UN5 whole entry, the tested form may be a part): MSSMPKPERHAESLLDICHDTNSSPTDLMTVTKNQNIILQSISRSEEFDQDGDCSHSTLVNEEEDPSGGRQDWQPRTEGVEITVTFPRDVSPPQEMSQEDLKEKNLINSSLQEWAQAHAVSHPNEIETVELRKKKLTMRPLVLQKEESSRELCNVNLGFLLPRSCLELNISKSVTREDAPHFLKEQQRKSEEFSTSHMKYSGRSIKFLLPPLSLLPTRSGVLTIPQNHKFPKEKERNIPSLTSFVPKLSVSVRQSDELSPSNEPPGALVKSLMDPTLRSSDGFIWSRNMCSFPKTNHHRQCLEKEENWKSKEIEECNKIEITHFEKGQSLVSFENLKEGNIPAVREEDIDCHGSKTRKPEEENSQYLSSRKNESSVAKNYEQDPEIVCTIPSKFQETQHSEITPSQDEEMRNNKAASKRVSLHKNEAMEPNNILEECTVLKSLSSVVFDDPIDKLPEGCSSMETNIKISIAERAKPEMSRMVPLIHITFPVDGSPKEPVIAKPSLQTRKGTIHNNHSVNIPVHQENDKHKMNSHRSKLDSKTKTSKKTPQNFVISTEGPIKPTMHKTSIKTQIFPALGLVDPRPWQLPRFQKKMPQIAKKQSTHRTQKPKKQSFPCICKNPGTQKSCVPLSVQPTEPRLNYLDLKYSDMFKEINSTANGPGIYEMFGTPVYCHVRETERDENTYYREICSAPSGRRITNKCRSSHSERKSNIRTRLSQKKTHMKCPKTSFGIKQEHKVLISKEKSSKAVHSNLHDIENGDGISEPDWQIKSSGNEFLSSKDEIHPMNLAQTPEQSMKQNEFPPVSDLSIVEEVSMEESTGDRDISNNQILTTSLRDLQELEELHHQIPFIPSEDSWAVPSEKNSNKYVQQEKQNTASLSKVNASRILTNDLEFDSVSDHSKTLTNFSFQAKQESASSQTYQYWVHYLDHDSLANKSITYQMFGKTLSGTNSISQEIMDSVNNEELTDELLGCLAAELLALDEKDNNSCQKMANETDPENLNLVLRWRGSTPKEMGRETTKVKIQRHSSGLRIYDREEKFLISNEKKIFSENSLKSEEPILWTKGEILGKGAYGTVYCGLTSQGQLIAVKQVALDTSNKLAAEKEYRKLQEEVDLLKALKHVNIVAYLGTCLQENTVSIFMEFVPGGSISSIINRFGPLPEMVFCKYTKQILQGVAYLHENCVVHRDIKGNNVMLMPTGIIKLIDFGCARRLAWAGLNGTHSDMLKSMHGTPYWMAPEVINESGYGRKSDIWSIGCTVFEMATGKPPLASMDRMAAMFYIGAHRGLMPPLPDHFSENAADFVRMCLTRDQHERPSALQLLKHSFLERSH
Chain of Proto-oncogene tyrosine-protein kinase Src (Homo sapiens) (P12931 2-536 limits assumed): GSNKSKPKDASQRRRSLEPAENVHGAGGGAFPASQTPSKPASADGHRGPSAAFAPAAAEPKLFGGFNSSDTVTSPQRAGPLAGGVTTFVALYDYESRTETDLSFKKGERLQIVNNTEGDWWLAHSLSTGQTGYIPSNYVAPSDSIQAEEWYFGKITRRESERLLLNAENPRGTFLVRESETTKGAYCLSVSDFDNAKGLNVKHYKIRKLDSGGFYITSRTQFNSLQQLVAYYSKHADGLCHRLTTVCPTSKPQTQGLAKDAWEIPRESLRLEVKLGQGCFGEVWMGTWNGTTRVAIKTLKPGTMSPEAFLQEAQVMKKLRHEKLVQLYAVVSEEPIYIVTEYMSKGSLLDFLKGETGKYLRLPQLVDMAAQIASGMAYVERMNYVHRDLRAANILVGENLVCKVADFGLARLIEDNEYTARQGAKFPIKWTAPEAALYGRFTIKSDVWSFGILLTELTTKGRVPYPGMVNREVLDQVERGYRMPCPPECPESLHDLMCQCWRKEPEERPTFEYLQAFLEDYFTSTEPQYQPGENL
Chain of Cyclin-dependent kinase 8 (Homo sapiens) (P49336 whole entry, the tested form may be a part): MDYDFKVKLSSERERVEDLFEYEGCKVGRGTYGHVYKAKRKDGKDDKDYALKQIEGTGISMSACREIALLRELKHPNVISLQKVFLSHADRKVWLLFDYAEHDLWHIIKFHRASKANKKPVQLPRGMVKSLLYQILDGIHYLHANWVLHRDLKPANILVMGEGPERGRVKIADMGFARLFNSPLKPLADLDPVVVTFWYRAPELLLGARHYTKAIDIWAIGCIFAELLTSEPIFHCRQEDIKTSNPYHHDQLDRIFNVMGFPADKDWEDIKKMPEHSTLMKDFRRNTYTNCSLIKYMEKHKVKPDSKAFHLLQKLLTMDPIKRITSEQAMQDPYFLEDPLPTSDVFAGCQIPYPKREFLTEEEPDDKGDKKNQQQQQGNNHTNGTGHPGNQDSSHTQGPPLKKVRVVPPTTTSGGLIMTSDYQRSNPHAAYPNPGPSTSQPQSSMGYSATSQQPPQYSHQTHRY

CC(C)N1C(=O)C(NCCCN(C)C)=C(c2cn(C)c3ccccc23)C1=O.Cl
Activity [1]: 83% | Activity [2]: 100% | Activity [3]: 100% | inhibition [4]: inactive | Activity [5]: 96% | Activity [6]: 94% | Activity [7]: 96% | Activity [8]: 82% | Activity [9]: 99% | Activity [10]: 93% | Activity [11]: 83% | Activity [12]: 100% | Activity [13]: 100% | Activity [14]: 100% | Activity [15]: 94% | Activity [16]: 84% | Activity [17]: 100% | Activity [18]: 94% | Activity [19]: 66% | Activity [20]: 100% | Activity [21]: 94% | Activity [22]: 89% | Activity [23]: 99% | Activity [24]: 90% | Activity [25]: 85%

Reference: ChEMBL document CHEMBL4304811, “Development of a Water-Soluble Indolylmaleimide Derivative IM-93 Showing Dual Inhibition of Ferroptosis and NETosis” (ACS Med Chem Lett, 2019)
